In patent publication US9649298B2, “Cytotoxic substance for use in combination with radiotherapy in cancer treatment” (Fumedica AG, priority 2013, dated 2017):

Columns and labels:
[1] = tested on: glioblastoma tumor; test: Glioblastoma tumor size after irradiation with 50x50 microbeam array (Example 2) followed by cisplatin; assay type: in vivo; conditions: Cisplatin administered within 30 min to 1 h after irradiation with 50x50 microbeam array
From the text: In this example, CAM were irradiated at the biomedical beamline of ESRF. The generation and preparation of the microbeams occurred basically in the same manner as described in Example 1 according to a second preferred embodiment with the substantially circular cross-section of each microbeam. The difference here however is that behind the multi-slit collimator a second collimator (such as an Archer variable multi-slit collimator) was placed into the path of the first array of microbeams formed by the first collimator. […] A GafChromic radiochromic film type […] But in Example 2 the irradiation rather punctures the tissue. Therefore, the level of exposure of the irradiated tissue is even less lethal and results in a […] chemotherapeutic window (compared to FIG. 4).

[2] = tested on: U-87 MG human glioblastoma xenographs; test: Tumor volume in U-87 MG human glioblastoma xenografts after microbeam radiation (fan-like array) and/or cisplatin; assay type: in vivo, Balb/c nude mice

N.N.[Cl][Pt][Cl] [Cisplatin, cisplatin]
glioblastoma tumor sizes after treatment [1]: progressive and significant decrease
tumor sizes after treatment (tumor volume, FIG. 8a) ([2]; double treatment (DT): Cisplatin administered after the MR procedure, within window of increased vascular permeability): progressive and significant decrease
tumor sizes after treatment (tumor volume, FIG. 8a) ([2]; only Cisplatin, single chemotherapeutic treatment, no irradiation): gradual increase in size
